Measured values taken from patent publication US9617289B2, “RSV antiviral compounds” (JANSSEN R&D IRELAND, priority 2012, dated 2017).

The molecules below were run on rgRSV224 virus (assay: Antiviral activity: inhibition of rgRSV224 (GFP-expressing RSV) replication in HeLa cells). Conditions: human respiratory syncytial virus, HeLa, 72 h, read-out: RSV-wt_pEC50, rgRSV224 (MOI=0.02) in HeLa cells, GFP expression three days post-virus exposure.
Type: cell-based, respiratory syncytial virus
Method: Black 96-well clear-bottom microtiter plates (Corning, Amsterdam, The Netherlands) were filled in duplicate using a customized robot system with serial 4-fold dilutions of compound in a final volume of 50 μl culture medium [RPMI medium without phenol red, 10% FBS, 0.04% gentamycin (50 mg/ml) and 0.5% DMSO]. Then, 100 μl of a HeLa cell suspension (5×10^4 cells/ml) in culture medium was added to each well followed by the addition of 50 μl rgRSV224 (MOI=0.02) virus in culture medium using a multidrop dispenser (Thermo Scientific, Erembodegem, Belgium). rgRSV224 virus is an engineered virus that includes an additional GFP gene (Hallak et al, 2000) and was in-licensed from the NIH (Bethesda, Md., USA). Medium, virus- and mock-infected controls were included in each test. Cells were incubated at 37° C. in a 5% CO2 atmosphere. Three days post-virus exposure, viral replication was quantified by measuring GFP expression in the cells by a MSM laser microscope (Tibotec, Beerse, Belgium). The EC50 was defined as the 50% inhibitory concentration for GFP expression. In parallel, compounds were incubated for three days in a set of white 96-well microtitier plates (Corning) and the cytotoxicity of compounds in HeLa cells was determined by measuring the ATP content of the cells using the ATPlite kit (PerkinElmer, Zaventem, Belgium) according to the manufacturer's instructions. The CC50 was defined as the 50% concentration for cytotoxicity. SI is calculated as CC50/EC50.

N#CCCCn1c(CN2C(=O)C3(CN(C(=O)[C@@H](O)CO)C3)c3ccccc32)cc2cc(Cl)ccc21 (single isomer, unassigned) [Compound 129] was tested, and the EC50 was 0.355 nM.

Same assay, conditions: human respiratory syncytial virus, HeLa, 72 h, read-out: pEC50, rgRSV224 (MOI=0.02) in HeLa cells, GFP expression three days post-virus exposure (converted)

Going from CC(C)(C)OC(=O)N1CCC2(CC1)C(=O)N(Cc1cc3cc(Cl)ccc3n1CCCS(C)(=O)=O)c1cnccc12 [Compound 1, tert-butyl 1′-({5-chloro-1-[3-(methylsulfonyl)propyl]-1H-indol-2-yl}methyl)-2′-oxo-1′,2′-dihydro-1H-spiro [piperidine-4,3′-pyrrolo[2,3-c]pyridine]-1-carboxylate] to CC(C)(C)OC(=O)N1CCC2(CC1)C(=O)N(Cc1nc3cc(Cl)ccc3n1CCCS(C)(=O)=O)c1cnccc12 [Compound 14, tert-butyl 1′-((5-chloro-1-(3-(methylsulfonyl)propyl)-1H-benzo[d]imidazol-2-yl)methyl)-2′-oxo-1′,2′-dihydrospiro-[piperidine-4,3′-pyrrolo[2,3-c]pyridine]-1-carboxylate], the EC50 falls from 0.631 nM to less than 0.158 nM.

Going from CS(=O)(=O)CCCn1c(CN2C(=O)C3(CCNCC3)c3ccncc32)cc2cc(Cl)ccc21 [Compound 2, 1′-({5-chloro-1-[3-(methylsulfonyl)propyl]-1H-indol-2-yl}methyl)spiro[piperidine-4,3′-pyrrolo[2,3-c]pyridin]-2′(1′H)-one] to CS(=O)(=O)CCCn1c(CN2C(=O)C3(CCN(S(C)(=O)=O)CC3)c3ccncc32)cc2cc(Cl)ccc21 [Compound 3, 1′-({5-chloro-1-[3-(methylsulfonyl)propyl]-1H-indol-2-yl}methyl)-1-(methylsulfonyl)spiro[piperidine-4,3′-pyrrolo[2,3-c]pyridin]-2′(1′H)-one], the EC50 falls from 50.1 nM to 0.0316 nM (1600-fold).

Compared with CC(C)(C)OC(=O)N1CC2(C1)C(=O)N(Cc1nc3cc(Cl)ccc3n1CCCS(C)(=O)=O)c1ccccc12 [Compound 4, tert-butyl 1′-({5-chloro-1-[3-(methylsulfonyl)propyl]-1H-benzimidazol-2-yl}methyl)-2′-oxo-1′,2′-dihydro-1H-spiro[azetidine-3,3′-indole]-1-carboxylate], CC(C)(O)C(=O)N1CC2(C1)C(=O)N(Cc1nc3cc(Cl)ccc3n1CCCS(C)(=O)=O)c1ccccc12 [Compound 6, 1′-({5-chloro-1-[3-(methylsulfonyl)propyl]-1H-benzimidazol-2-yl}methyl)-1-(2-hydroxy-2-methylpropanoyl)spiro[azetidine-3,3′-indol]-2′(1′H)-one] is 6.3-fold higher in EC50: 0.0794 nM for the first, 0.501 nM for the second.

CS(=O)(=O)CCCn1c(CN2C(=O)C3(CNC3)c3ccccc32)nc2cc(Cl)ccc21 [Compound 5, 1′-({5-chloro-1-[3-(methylsulfonyl)propyl]-1H-benzimidazol-2-yl}methyl)spiro[azetidine-3,3′-indol]-2′(1′H)-one] and CS(=O)(=O)CCCn1c(CN2C(=O)C3(CCNCC3)c3ccccc32)nc2cc(Cl)ccc21 [Compound 21, 1-((5-chloro-1-(3-(methylsulfonyl)propyl)-1H-benzo[d]-imidazol-2-yl)methyl)spiro[indoline-3,4′-piperidin]-2-one] are the same in EC50: 5.01 nM for the first, 5.01 nM for the second.

Going from CS(=O)(=O)CCCn1c(CN2C(=O)C3(CN(c4cccnc4)C3)c3ccccc32)nc2cc(Cl)ccc21 [Compound 7, 1′-({5-chloro-1-[3-(methylsulfonyl)propyl]-1H-benzimidazol-2-yl}methyl)-1-(pyridin-3-yl)spiro[azetidine-3,3′-indol]-2′(1′H)-one] to CC(C)(O)CN1CC2(C1)C(=O)N(Cc1nc3cc(Cl)ccc3n1CCCS(C)(=O)=O)c1ccccc12 [Compound 8, 1′-({5-chloro-1-[3-(methylsulfonyl)propyl]-1H-benzimidazol-2-yl}methyl)-1-(2-hydroxy-2-methylpropyl)spiro[azetidine-3,3′-indol]-2′(1′H)-one], the EC50 rises from 0.0251 nM to 0.794 nM (32-fold).

CS(=O)(=O)CCCn1c(CN2C(=O)C3(CCN(S(=O)(=O)c4ccc5nccnc5c4)CC3)c3ccncc32)nc2cc(Cl)ccc21 [Compound 13, 1′-((5-chloro-1-(3-(methylsulfonyl)propyl)-1H-benzo[d]-imidazol-2-yl)methyl)-1-(quinoxalin-6-ylsulfonyl)spiro-[piperidine-4,3′-pyrrolo[2,3-c]pyridin]-2′(1′H)-one] and CS(=O)(=O)CCCn1c(CN2C(=O)C3(CCN(S(=O)(=O)c4ccc5nccnc5c4)CC3)c3ccccc32)nc2cc(Cl)ccc21 [Compound 16, 1-((5-chloro-1-(3-(methylsulfonyl)propyl)-1H-benzo[d]-imidazol-2-yl)methyl)-1′-(quinoxalin-6-ylsulfonyl)spiro-[indoline-3,4′-piperidin]-2-one] cannot be ordered by EC50: 0.0501 nM for the first, less than 0.158 nM for the second.

Going from CS(=O)(=O)CCCn1c(CN2C(=O)C3(CCN(c4ccc(Cl)nn4)CC3)c3ccccc32)nc2cc(Cl)ccc21 [Compound 15, 1-((5-chloro-1-(3-(methylsulfonyl)propyl)-1H-benzo[d]-imidazol-2-yl)methyl)-1′-(6-chloropyridazin-3-yl)spiro-[indoline-3,4′-piperidin]-2-one] to CS(=O)(=O)CCCn1c(CN2C(=O)C3(CCN(c4ccc(Cl)nn4)CC3)c3cc(Br)ccc32)nc2cc(Cl)ccc21 [Compound 20, 5-bromo-1-((5-chloro-1-(3-(methylsulfonyl)propyl)-1H-benzo[d]imidazol-2-yl)methyl)-1′-(6-chloropyridazin-3-yl)spiro[indoline-3,4′-piperidin]-2-one], the EC50 rises from less than 0.158 nM to 3.98 nM.

Compared with CC(C)(C)OC(=O)N1CCC2(CC1)C(=O)N(Cc1nc3cc(Br)ccc3n1CCCS(C)(=O)=O)c1ccccc12 [Compound 17, tert-butyl 1-((5-bromo-1-(3-(methylsulfonyl)propyl)-1H-benzo[d]imidazol-2-yl)methyl)-2-oxospiro[indoline-3,4′-piperidine]-1′-carboxylate], CC(C)(C)OC(=O)N1CCC2(CC1)C(=O)N(Cc1nc3cc(Cl)ccc3n1CCCS(C)(=O)=O)c1ccc(Br)cc12 [Compound 23, tert-butyl 5-bromo-1-((5-chloro-1-(3-(methyl-sulfonyl)propyl)-1H-benzo[d]imidazol-2-yl)methyl)-2-oxospiro[indoline-3,4′-piperidine]-1′-carboxylate] is 25-fold higher in EC50: 0.316 nM for the first, 7.94 nM for the second.

Going from CS(=O)(=O)CCCn1c(CN2C(=O)C3(CCN(S(=O)(=O)c4ccc(C#N)cc4)CC3)c3ccccc32)nc2cc(Cl)ccc21 [Compound 18, 4-(1-((5-chloro-1-(3-(methylsulfonyl)propyl)-1H-benzo[d]-imidazol-2-yl)methyl)-2-oxospiro[indoline-3,4′-piperidine]-1′-ylsulfonyl) benzonitrile] to CS(=O)(=O)CCCn1c(CN2C(=O)C3(CN(S(=O)(=O)c4ccc(F)cc4)C3)c3ccccc32)nc2cc(Cl)ccc21 [Compound 33, 1′-({5-chloro-1-[3-(methylsulfonyl)propyl]-1H-benzimidazol-2-yl}methyl)-1-[(4-fluorophenyl)-sulfonyl]spiro[azetidine-3,3′-indol]-2′(1′H)-one], the EC50 falls from 1.26 nM to 0.158 nM (8-fold).

Compared with CS(=O)(=O)CCCn1c(CN2C(=O)C3(CCOCC3)c3cc(F)ccc32)nc2cc(Cl)ccc21 [Compound 19], CS(=O)(=O)CCCn1c(CN2C(=O)C3(CCOCC3)c3ccncc32)nc2cc(Cl)ccc21 [Compound 38, 1′-((5-chloro-1-(3-(methylsulfonyl)propyl)-1H-benzo[d]-imidazol-2-yl)methyl)-2,3,5,6-tetrahydrospiro[pyran-4,3′-pyrrolo[2,3-c]pyridin]-2′(1′H)-one] is 25-fold lower in EC50: 3.98 nM for the first, 0.158 nM for the second.

CS(=O)(=O)CCCn1c(CN2C(=O)C3(CCN(C(=O)c4ccncc4)CC3)c3cc(Br)ccc32)nc2cc(Cl)ccc21 [Compound 22, 5-bromo-1-((5-chloro-1-(3-(methylsulfonyl)propyl)-1H-benzo[d]imidazol-2-yl)methyl)-1′-isonicotinoylspiro-[indoline-3,4′-piperidin]-2-one] and CC(=O)N1CCC2(CC1)C(=O)N(Cc1nc3cc(Cl)ccc3n1CCCS(C)(=O)=O)c1ccc(Cl)cc12 [Compound 24, 1-acetyl-5-chloro-1-((5-chloro-1-(3-(methylsulfonyl)-propyl)-1H-benzo[d]imidazol-2-yl)methyl)spiro[indoline-3,4′-piperidin]-2-one] are the same in EC50: 7.94 nM for the first, 7.94 nM for the second.

Going from CC(C)(O)CN1CCC2(CC1)C(=O)N(Cc1nc3cc(Cl)ccc3n1CCCS(C)(=O)=O)c1ccc(Cl)cc12 [Compound 25, 5-chloro-1-((5-chloro-1-(3-(methylsulfonyl)propyl)-1H-benzo[d]imidazol-2-yl)methyl)-1-(2-hydroxy-2-methylpropyl)spiro[indoline-3,4′-piperidin]-2-one] to CS(=O)(=O)CCCn1c(CN2C(=O)C3(CCNCC3)c3c(Cl)cccc32)nc2cc(Cl)ccc21 [Compound 26, 4-chloro-1-({5-chloro-1-[3-(methylsulfonyl)propyl]-1H-benzimidazol-2-yl}methyl)spiro[indole-3,4′-piperidin]-2(1H)-one], the EC50 rises from 31.6 nM to 316 nM (10-fold).

In the case of CS(=O)(=O)CCCn1c(CN2C(=O)C3(CCCC3)c3ccncc32)nc2cc(Cl)ccc21 [Compound 37, 1′-((5-chloro-1-(3-(methylsulfonyl)propyl)-1H-benzo[d]-imidazol-2-yl)methyl)spiro[cyclopentane-1,3′-pyrrolo[2,3-c]pyridin]-2′(1′H)-one], the EC50 is reported as 0.1 nM.
